Measured values taken from patent publication US10100030B2 (Kissei Pharmaceutical Co., Ltd., priority 2013, dated 2018).

Tests used:
human NK1 receptor [1] = target: T1, human NK1 receptor (Homo sapiens (Human), UniProt P25103); assay: Inhibitory effect on human NK1 receptor (substance P-induced increase in intracellular calcium concentration); assay type: cell-based; conditions: HEK-293T; substance P 1 μM, compound 0.1 μM; human NK1 receptor-expressing 293T cells; read-out: SPRR (Substance P-Response Remaining)
Experimental: Inhibitory Effect on Human NK1 Receptor
(1) Preparation of Human NK1 Receptor-expressing Cells
Human NK1 receptor-expressing cells were prepared by the same methods as those described in 2-3 and 2-4 of Test Example 1.
(2) Study on Inhibitory Effect on Increase in Intracellular Calcium Concentration
The human NK1 receptor-expressing cells were washed with 300 μL/well of a washing solution (20 mM HEPES/Hank's Balanced Salt Solution (HBSS) […]). A fluorescent calcium indicator (Fluo-4 Direct Calcium Assay Kit, Life Technologies, containing 0.42 mM probenecid and 0.1% bovine serum albumin, prepared according to the protocol of the product) was added to the wells at 150 μL/well, and the plate was incubated at 37° C. for 30 minutes in an incubator. Then, DMSO solutions of a test compound, which were prepared at an 80-time higher concentration using 100% dimethyl sulfoxide (DMSO), were added to the wells at 2.5 μL/well (final concentrations of 0.1, 1 and 10 μM), and the solutions were mixed. Then, the plate was further incubated at 37° C. for 30 minutes in an incubator. After 30 minutes, the intracellular calcium concentrations were measured immediately.
The intracellular calcium concentrations were each measured as a fluorescent signal using FDSS (registered trademark) 7000 (Hamamatsu Photonics). A substance P (Peptide Institute, Inc.) solution which was prepared at 0.4 μM or 4 μM using an assay buffer (20 mM HEPES/Hank's Balanced Salt Solution (HBSS) pH 7.3, containing 0.1% bovine serum albumin) was added automatically to each well at 50 μL/well (final concentration of 0.1 or 1 μM) 10 seconds after starting reading, and the fluorescent signal was measured up to 120 seconds.
The intracellular calcium concentration (%) of the cells to which a test compound was added was calculated by the equation below, where the fluorescent signal of the group to which the vehicle (DMSO) was added was regarded as 100%, and the fluorescent signal before the addition of substance P was regarded as 0%. Intracellular calcium concentration(%)=(Fluorescent signal of test compound addition group)/(Fluorescent signal of vehicle addition group)×100
The intracellular calcium concentration (%) calculated was regarded as the remaining agonist activity of substance P (Substance P-Response Remaining: SPRR). In the table, Ex. No. means the Example number. SPRR (%) is the value obtained when the concentration of substance P was 1 μM and the concentration of the compound was 0.1 μM.

human NK1 receptor [2] = target: T1, human NK1 receptor; assay: Affinity for human NK1 receptor (125I-substance P receptor binding test); conditions: membrane fraction of human NK1 receptor-expressing 293T cells; read-out: IC50 (concentration required for 50% inhibition of 125I-substance P binding)
Experimental: Affinity for Human NK1 Receptor
(3) Measurement of Binding Affinity to Human NK1 Receptor
(3-1) Preparation of Membrane Fraction from Human NK1 Receptor-expressing Cells
Human NK1 receptor-expressing cells were prepared in a 175 cm^2 culture flask (Nippon Becton Dickinson). The formation of a complex of the human NK1 receptor expression plasmid and Lipofectamine 2000 was performed by calculating the culture area ratio and increasing the scale of the method described in the above 2-4 by the ratio. The human NK1 receptor-expressing cells were collected in a buffer solution for the membrane fraction preparation (50 mM Tris (Wako Pure Chemical). 120 mM sodium chloride (Wako Pure Chemical Industries), 5 mM potassium chloride (Wako Pure Chemical Industries), 1 mM ethylenediaminetetraacetic acid (Sigma), 0.002 mg/mL chymostatin (Peptide Institute), 0.04 mg/ bacitracin (Wako Pure Chemical Industries), 0.005 mg/mL phosphoramidon (Peptide Institute) and 0.5 mM phenylmethylsulfonyl fluoride (Wako Pure Chemical Industries), pH7.4) and centrifuged at 1,880 g for 10 minutes, and the cell sediment was suspended in the buffer solution for the membrane fraction preparation. After freezing and thawing the cells once, the cells were homogenized using a Dounce-type homogenizer (cooled on ice, 1000 rpm, 20 times). The homogenized cell suspension was centrifuged at 20,000 rpm for 10 minutes, and the supernatant was removed to obtain cell sediment. The cell sediment was suspended again in the buffer solution for the membrane fraction preparation and homogenized using a Dounce-type homogenizer (cooled on ice, 1000 rpm, 30 times). The cell suspension was centrifuged at 20,000 rpm for 10 minutes, and the supernatant was removed to obtain cell sediment. The same homogenization and centrifugation were repeated again, and final cell sediment was obtained. The final cell sediment was suspended in a buffer solution for the receptor binding test (50 mM Tris (Wako Pure Chemical Industries), 3 mM manganese chloride (Wako Pure Chemical Industries), 0.002 mg/mL chymostatin (Peptide Institute), 0.04 mg/bacitracin (Wako Pure Chemical Industries) and 0.02% bovine serum albumin (Sigma), pH 7.4), and the protein concentration was measured using BCA Protein Assay Kit (Pierce).
(3-2) Receptor Binding Test
The buffer solution for the receptor binding test was dispensed to the wells of a 96-well assay plate (Greiner) at 22.5 μL/well. DMSO solutions of a test compound, which were prepared at an 80-time higher concentration using 100% dimethyl sulfoxide (DMSO), were added to the wells at 2.5 μL/well (final concentrations of 1 nM to 100 nM), and the solutions were mixed. As a radiolabeled ligand, ^125I-substance P (Substance P, [^125I]Tyr^8-, PerkinElmer) was used. ^125I-substance P was diluted with the buffer solution for the receptor binding test to a concentration resulting in […] and added to the 96-well assay plate, and the solutions were mixed. The membrane fraction prepared from the human NK1 receptor-expressing cells was diluted with the buffer solution for the receptor binding test to a concentration resulting in 8 to 10 μg/well, suspended until the suspension became in such a homogenous state that the suspension could flow through as 27G injection needle smoothly and then added to the 96-well assay plate at 150 μL/well. Then, the plate was incubated at room temperature for 60 minutes while shaking the plate. The reaction solutions were suction-filtered. through a multiscreen 96-well filter plate (Millipore) which had been pre-treated with 0.3% polyethyleneimine, and the reaction was terminated by washing with a washing solution (50 mM Tris and 0.02% bovine serum albumin, pH 7.4) four times. The bottom of the microplate was dried at 60° C., and then 100 μL/well of MicroScint 20 (PerkinElmer) was dispensed to the wells. The top of the plate was sealed with TopSeal A (PerkinElmer), and the plate was shaken for 5 to 10 minutes. […]

T1 sequence (P25103 whole entry): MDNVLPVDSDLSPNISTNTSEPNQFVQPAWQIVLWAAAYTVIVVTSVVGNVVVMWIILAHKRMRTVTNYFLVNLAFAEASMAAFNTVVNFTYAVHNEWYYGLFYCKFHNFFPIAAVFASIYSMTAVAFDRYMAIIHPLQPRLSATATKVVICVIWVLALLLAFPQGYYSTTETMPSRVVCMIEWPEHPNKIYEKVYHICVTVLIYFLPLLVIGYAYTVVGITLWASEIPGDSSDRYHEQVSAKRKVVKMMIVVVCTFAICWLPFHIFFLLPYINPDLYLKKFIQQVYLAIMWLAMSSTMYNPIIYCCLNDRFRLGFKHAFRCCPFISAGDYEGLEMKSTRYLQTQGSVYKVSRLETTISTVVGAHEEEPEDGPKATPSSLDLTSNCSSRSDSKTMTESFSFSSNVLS

Structure (SMILES): Cc1cc(F)ccc1-c1cc(N2CCC(CC(=O)O)CC2)ncc1N(C)C(=O)C(C)(C)c1cc(C(F)(F)F)cc(C(F)(F)F)c1 [Example 1]
- remaining activity at 0.1 µM (human NK1 receptor [1]): 28%
- IC50 (human NK1 receptor [2]): 2.11 nM
